Consider 13 compounds from patent US8906914B2, “Ethylene diamine modulators of fatty acid hydrolase” (priority 2009, dated 2014).

Where a name gives a salt, the structure may show the parent alone. Some results are limits rather than exact numbers.

In general, IC50 refers to the concentration that gives 50% inhibition. A lower IC50 goes with inhibition by little substance.

One experiment has as its target T1, FAAH (Homo sapiens, UniProt O00519).
T1 sequence (O00519 1-579): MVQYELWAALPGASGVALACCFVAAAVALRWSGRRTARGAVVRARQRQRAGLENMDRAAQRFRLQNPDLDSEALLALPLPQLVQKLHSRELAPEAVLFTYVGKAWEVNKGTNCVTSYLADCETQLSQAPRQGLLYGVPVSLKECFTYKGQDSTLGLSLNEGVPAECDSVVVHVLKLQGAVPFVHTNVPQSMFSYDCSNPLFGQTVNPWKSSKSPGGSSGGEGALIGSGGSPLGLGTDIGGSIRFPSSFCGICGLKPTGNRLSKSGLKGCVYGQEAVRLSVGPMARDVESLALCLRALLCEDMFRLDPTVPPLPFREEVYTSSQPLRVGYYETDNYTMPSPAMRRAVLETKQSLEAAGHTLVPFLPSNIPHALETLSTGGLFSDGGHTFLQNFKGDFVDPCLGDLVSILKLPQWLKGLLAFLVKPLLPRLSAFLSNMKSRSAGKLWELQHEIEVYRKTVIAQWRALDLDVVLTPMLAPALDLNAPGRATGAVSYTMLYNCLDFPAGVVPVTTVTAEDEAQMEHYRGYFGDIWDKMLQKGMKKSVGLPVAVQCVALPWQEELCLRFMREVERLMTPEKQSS
The experiment is described as follows: Human FAAH assay (Assay Method 1), 3H-anandamide hydrolysis in cell homogenate. Details: expressed in transfected cells; alternatively T84 frozen cell pellets (endogenous FAAH). It counts as biochemical. As for the experimental part: A. Transfection of Cells with Human FAAH
(§1) A 10-cm tissue culture dish with a confluent monolayer of SK-N-MC cells was split 2 days (d) prior to transfection. Using sterile technique, the media was removed and the cells were detached from the dish by the addition of trypsin. One fifth of the cells were then placed onto a new 10-cm dish. Cells were grown in a 37° C. incubator with 5% CO2 in Minimal Essential Media Eagle with 10% Fetal Bovine Serum. After 2 d, cells were approximately 80% confluent. These cells were removed from the dish with trypsin and pelleted in a clinical centrifuge. The pellet was re-suspended in 400 μL complete media and transferred to an electroporation cuvette with a 0.4 cm gap between the electrodes. Supercoiled human FAAH cDNA (1 μg) was added to the cells and mixed. The voltage for the electroporation was set at 0.25 kV, and the capacitance was set at 960 μF. After electroporation, the cells were diluted into complete media (10 mL) and plated onto four 10-cm dishes. Because of the variability in the efficiency of electroporation, four different concentrations of cells were plated. The ratios used were 1:20, 1:10, and 1:5, with the remainder of the cells being added to the fourth dish. The cells were allowed to recover for 24 h before adding the selection media (complete media with 600 μg/mL G418). After 10 d, dishes were analyzed for surviving colonies of cells. Dishes with well-isolated colonies were used. Cells from individual colonies were isolated and tested.
(§2) The assay mixture consisted of 50 μL of the cell homogenate, 10 μL of the test compound, and 40 μL of anandamide [1-3H-ethanolamine] (^3H-AEA, Perkin-Elmer, 10.3 Ci/mmol), which was added last, for a final tracer concentration of 80 nM. The reaction mixture was incubated at rt for 1 h. During the incubation, 96-well Multiscreen filter plates (catalog number MAFCNOB50; Millipore, Bedford, Mass., USA) were loaded with 25 μL of activated charcoal (Multiscreen column loader, catalog number MACL09625, Millipore) and washed once with 100 μL of MeOH. Also during the incubation, 96-well DYNEX MicroLite plates (catalog number NL510410) were loaded with 100 μL of MicroScint40 (catalog number 6013641, Packard Bioscience, Meriden, Conn., USA). After the 1 h incubation, 60 μL of the reaction mixture were transferred to the charcoal plates, which were then assembled on top of the DYNEX plates using Centrifuge Alignment Frames (catalog number MACF09604, Millipore). The unbound labeled ethanolamine was centrifuged through to the bottom plate (5 min at 2000 rpm), which was preloaded with the scintillant, as described above. The plates were sealed and left at rt for 1 h before counting on a Hewlett Packard TopCount.
(§3) Where activity is shown as greater than (>) a particular value, the value is the solubility limit of the compound in the assay medium or the highest concentration tested in the assay.

A further experiment addresses T2, Rat FAAH-1 (Rattus norvegicus, UniProt P97612).
T2 construct: expressed in transfected cells
T2 sequence (P97612 1-579): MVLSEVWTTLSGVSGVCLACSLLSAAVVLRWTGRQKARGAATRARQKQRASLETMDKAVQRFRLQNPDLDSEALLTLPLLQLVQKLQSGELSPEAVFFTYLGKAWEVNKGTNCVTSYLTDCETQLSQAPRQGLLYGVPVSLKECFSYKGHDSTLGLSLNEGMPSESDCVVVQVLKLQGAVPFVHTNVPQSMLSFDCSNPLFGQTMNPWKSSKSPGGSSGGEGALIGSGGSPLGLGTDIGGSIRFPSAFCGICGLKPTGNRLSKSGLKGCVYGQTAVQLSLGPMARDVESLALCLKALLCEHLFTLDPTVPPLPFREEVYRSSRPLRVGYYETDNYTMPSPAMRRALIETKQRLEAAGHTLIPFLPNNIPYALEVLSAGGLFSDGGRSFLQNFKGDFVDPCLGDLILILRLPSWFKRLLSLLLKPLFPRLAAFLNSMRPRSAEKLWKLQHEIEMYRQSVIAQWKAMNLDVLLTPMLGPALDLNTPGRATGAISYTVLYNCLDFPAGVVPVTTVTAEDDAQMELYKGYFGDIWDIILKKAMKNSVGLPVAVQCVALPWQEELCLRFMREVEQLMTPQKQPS
The experiment is described as follows: Rat FAAH-1 assay (Assay Method 2), 3H-anandamide hydrolysis in cell homogenate. The class given is biochemical. As for the experimental part:
A. Transfection of Cells with Rat FAAH-1
as §1, with “rat” for “human”
as §2, with “[1-^3H-ethanolamine]” for “[1-3H-ethanolamine]”
as §3

Take `N[C@@H](CNc1cc(-c2ccc(C(F)(F)F)c(Cl)c2)ncn1)c1cccc(F)c1` [Example 37, (1R)—N^2-[6-(3-Chloro-4-trifluoromethyl-phenyl)-pyrimidin-4-yl]-1-(3-fluoro-phenyl)-ethane-1,2-diamine, trifluoroacetic acid salt]: the 50% inhibitory concentration (IC50) against FAAH turned out to be 39 nM; against Rat FAAH-1 it was 110 nM.
Taken in the same sequence, the figures for `CS(=O)(=O)c1ccc([C@@H](N)CNc2cc(-c3ccc(C(F)(F)F)c(Cl)c3)ncn2)cc1` [Example 63, (1R)—N^2-[6-(3-Chloro-4-trifluoromethyl-phenyl)-pyrimidin-4-yl]-1-(4-methanesulfonyl-phenyl)-ethane-1,2-diamine] were more than 10000 nM and more than 10000 nM.
On to `N[C@@H](CNc1cc(-c2cccc(Cl)c2)ncn1)c1ccccc1` [Example 15, (1R)—N^2-[6-(3-Chlorophenyl)pyrimidin-4-yl]-1-phenylethane-1,2-diamine hydrochloride acid salt], for which the 50% inhibitory concentration (IC50) against FAAH was 1000 nM. That is a single-digit micromolar value.
With `N#Cc1cccc([C@H](N)CNc2cc(-c3ccc(C(F)(F)F)c(Cl)c3)ncn2)c1` [Example 48, (1S)-3-{1-Amino-2-[6-(3-chloro-4-trifluoromethyl-phenyl)-pyrimidin-4-ylamino]-ethyl}-benzonitrile], the 50% inhibitory concentration (IC50) against FAAH and against Rat FAAH-1 was 3000 nM each time.
`N[C@H](CNc1cc(-c2ccc(C(F)(F)F)c(Cl)c2)ncn1)c1ccc(F)c(Cl)c1` [Example 46, (1S)—N^2-1-(3-Chloro-4-fluoro-phenyl)-[6-(3-chloro-4-trifluoromethyl-phenyl)-pyrimidin-4-yl]-ethane-1,2-diamine]: the IC50 against FAAH and against Rat FAAH-1 was 3000 nM in each case.
For the compound `N[C@H](CNc1cc(-c2ccc(C(F)(F)F)c(Cl)c2)ncn1)c1ccc(Cl)c(Cl)c1` [Example 42, (1S)—N^2-[6-(3-Chloro-4-trifluoromethyl-phenyl)-pyrimidin-4-yl]-1-(3,4-dichloro-phenyl)-ethane-1,2-diamine], the results for the IC50 on FAAH and against Rat FAAH-1 were 8000 nM and 5000 nM, respectively.
In the case of `N[C@@H](CNc1cc(-c2ccc(C(F)(F)F)c(F)c2)ncn1)c1ccccc1` [Example 4, (1R)—N^2-{6-[3-Fluoro-4-(trifluoromethyl)phenyl]pyrimidin-4-yl}-1-phenylethane-1,2-diamine hydrochloride acid salt], the half-inhibitory concentration (IC50) is 100 nM against FAAH and 320 nM against Rat FAAH-1.
For `N[C@@H](CNc1cc(-c2ccc(C(F)(F)F)c(Cl)c2)ncn1)c1ccc(C(F)(F)F)cc1` [Example 30, (1R)—N^2-[6-(3-Chloro-4-trifluoromethyl-phenyl)-pyrimidin-4-yl]-1-(4-trifluoromethyl-phenyl)-ethane-1,2-diamine], in that order: 160 nM and 52 nM.
Taken in the same sequence, the figures for `N#Cc1cc([C@@H](N)CNc2cc(-c3ccc(C(F)(F)F)c(Cl)c3)ncn2)ccc1F` [Example 62, (1R)-5-{1-Amino-2-[6-(3-chloro-4-trifluoromethyl-phenyl)-pyrimidin-4-ylamino]-ethyl}-2-fluoro-benzonitrile] were 320 nM and 300 nM.
With `N[C@@H](CNc1cc(-c2ccc(OC(F)(F)F)c(F)c2)ncn1)c1ccc(F)cc1` [Example 64, (1R)—N^2-1-(4-Fluoro-phenyl)-[6-(3-fluoro-4-trifluoromethoxy-phenyl)-pyrimidin-4-yl]-ethane-1,2-diamine, trifluoroacetic acid salt], the values for the 50% inhibitory concentration (IC50) on FAAH and against Rat FAAH-1 were 66 nM and 75 nM, respectively.
`N[C@@H](CNc1cc(-c2ccc(C(F)(F)F)c(Cl)c2)ncn1)c1ccc(F)c(Cl)c1` [Example 47, (1R)—N^2-1-(3-Chloro-4-fluoro-phenyl)-[6-(3-chloro-4-trifluoromethyl-phenyl)-pyrimidin-4-yl]-ethane-1,2-diamine]: the IC50 at FAAH was found to be 120 nM; at Rat FAAH-1, 115 nM.
For `CCOc1ccc(-c2cc(NC[C@H](N)c3ccccc3)ncn2)cc1` [Example 19, (1R)—N^2-[6-(4-Ethoxyphenyl)pyrimidin-4-yl]-1-phenylethane-1,2-diamine hydrochloride acid salt], in that order: 70 nM and 1000 nM.
For `N[C@H](CNc1cc(-c2ccc(C(F)(F)F)c(Cl)c2)ncn1)c1ccc2c(c1)OC(F)(F)O2` [Example 31, (1S)—N^2-[6-(3-Chloro-4-trifluoromethyl-phenyl)-pyrimidin-4-yl]-1-(2,2-difluoro-benzo[1,3]dioxol-5-yl)-ethane-1,2-diamine], in that order: 630 nM and 770 nM.
